# Laboratory results published in patent US20150017638A1, “METHODS FOR ASSESSING RISK FOR CANCER USING BIOMARKERS” (THE TRUSTEES OF THE UNIVERSITY OF PENNSYLVANIA, priority 2012, published 2015).
# How the values were obtained:
# murine PanIN disease = settings: Guerra et al., 2011; cited from earlier work
# [1] = tested on: Primary cell lines derived from PanIN mice (sorted YFP+ cells); assay: In vitro exposure of PanIN-derived primary cell lines to cerulein, dexamethasone, TGF-b; type: cell-based, mouse; settings: 48 hr; for cell morphology: dexamethasone 1 mM, vs DMSO vehicle
# Method: Cells destined for transcriptional analysis were sorted into either RLT buffer (QIAGEN) or Trizol LS Reagent (Invitrogen). RNA was extracted from samples >1,000 cells using the RNEasy kit (QIAGEN). RNA from samples with fewer cells, including all sorted blood cell samples, was isolated using the PicoPure Extraction kit as directed (Arcturus). qPCR was performed as previously described (Zong et al., 2009), and primary sequences used are listed in Table 1, below. Relative expression was determined after adjusting for GAPDH. Genomic DNA was extracted from sorted CPCs pooled from three tumor-bearing mice using phenol or DNeasy kit (QIAGEN).
# Primary cell lines were derived from PanIN mice after sorting pancreas single-cell suspensions for YFP^+ cells. Sorted YFP^+ cells were then placed in six-well plates in pancreatic ductal cell media (Schreiber et al., 2004) and passaged at 80% confluence, Cells were transferred to multiple 6-well plates (250,000 cells per well) in pancreatic ductal cell media containing DMSO vehicle, cerulein (100 nM, Sigma), dexamethasone (Dex, 1 mM, Sigma), TGF-b (5 ng/ml, Peprotech), or Dex (1 mM) and TGF-b (5 ng/ml). Morphology was photodocumented at 6 hr, 24 hr, and 48 hr after treatment using an inverted microscope. After 48 hr of exposure, cells were counted and RNA isolated, cDNA synthesized, and qPCR performed as described above.
# [2] = tested on: CY, KCY, PanIN PKCY, and PDAC PKCY mice; assay: Experimental acute pancreatitis elicited with cerulein in lineage-labeled mice; type: in vivo, mouse
# Source text: The behavior of mutant strains bearing various allele combinations of Pdx1-Cre KrasG12D, p16/p19fl, and p53fl has been described previously (Aguirre et al., 2003; Bardeesy et al., 2006; Hingorani et al., 2003; and U.S. patent application Ser. No. 11/503,499, the contents of which are expressly incorporated herein by reference). To perform lineage tracing, a RosaYFP reporter allele was introduced into these mutant backgrounds to generate a panel of compound mutant strains: Pdx1-Cre; RosaYFP (“CY”), Pdx 1-Cre; KrasG12D; RosaYFP (“KCY”), Pdx1-Cre; KrasG12D; p16/p19fl/+; RosaYFP (“IKCY”), and Pdx1-Cre; KrasG12D; p53fl/+; RosaYFP (“PKCY”). All experiments involving the KCY model employed mice between 8 and 10 weeks of age. For studies involving mice harboring only PaniN lesions by histologic analysis (“PanIN” mice), PKCY animals were sacrificed at 8-10 weeks of age based on prior observations regarding tumor progression (Bardeesy et al., 2006); no PKCY mice (out of 18 examined) had evidence of carcinoma at this time point. […] More than 90% of IKCY and PKCY mice were 34-38 weeks of age or 16-20 weeks of age, respectively, at the time of sacrifice.
# Experimental pancreatitis was elicited with cerulein as described (Siveke et al., 2008), and specimens were obtained after 3 days of treatment. Three to four CY, KCY, PanIN PKCY, and PDAC PKCY were used for cerulein and vehicle (PBS) treated cohorts. Orthotopic transplantations were performed on NOD/SCID mice by injecting 1×10^5 sorted pancreas cells as previously described (Mohammad et al., 1998). PKCY PanIN mice aged 10 weeks were treated with seven daily injections of dexamethasone or vehicle (DMSO) as described (Stairs et al., 2011) and analyzed 24 hours later.
# For experiments involving flow cytometry and sorting of pancreatic cells, at least 25% of the tissue was saved for histologic analysis and was processed and stained. To create a single cell suspension, pancreatic tissue was rinsed vigorously in cold DMEM/F12 three times before mincing with scissors (approximately 100 chops). The minced pieces were then incubated in preheated collagenase with protease inhibitors (2 mg/ml; Sigma) for 20 min at 37° C. Vigorous vortexing was performed every 5 min during this incubation. The dissolved pieces were then poured over a […] cell strainer. The flow through was resuspended in cold 2% FCS/DMEM/F12, centrifuged, washed once, and kept on ice in the dark. Enriched blood samples or dissociated pancreatic specimens were stained for various markers prior to flow cytometric analysis (FACS Calibur, BD, or Accuri C6, Accuri Cytometers) or flow sorting (FACSVantage with FACSDiva option, BD). For analysis and sorting based on endogenous YFP and surface markers, primary antibodies (1:100) and secondary antibodies (1:50) were incubated with cells in 10% FCS/DMEM/F12 for 20 min at 4° C. Primary PanIN cell lines from IKCY and PKCY mice were used as positive controls. Isotype controls were also run. For intracellular staining of CPCs and pancreas cells, cells were washed with 10% FCS/DMEM/F12 before washing in freshly prepared 13fixation/permeabilization solution (Fix/Perm; eBioscience) followed by incubation in Fix/Perm for 30 min in the dark at 4° C. Cells were washed twice with 13 permeabilization buffer (Perm; eBioscience) before incubation in Block-P solution (10% FCS in freshly prepared Perm). After 15 min at 4° C., primary antibodies were added and incubated for an additional 20 min on ice. […]
# [3] = cerulein 100 nM, Dex 1 mM, triplicate
molecule,measurement,setting,value
CC1=C(CC(=O)O)c2cc(F)ccc2/C1=C\c1ccc([S+](C)[O-])cc1 (stereo not shown) [sulindac],PanIN disease,murine PanIN disease,regression of murine PanIN disease
TGF-b,expression of epithelial markers (qPCR),"[1]; TGF-b 5 ng/ml, triplicate",significant downregulation of epithelial markers
same,expression of mesenchymal markers Zeb1 and N-cad (qPCR),"[1]; TGF-b 5 ng/ml, triplicate",increase in the expression of the mesenchymal markers Zeb1 and N-cad
same,cell morphology,"[1]; cerulein 100 nM, TGF-b 5 ng/ml",acquisition of a fibroblast-like morphology
C[C@@H]1C[C@H]2[C@@H]3CCC4=CC(=O)C=C[C@]4(C)[C@@]3(F)[C@@H](O)C[C@]2(C)[C@@]1(O)C(=O)CO [dexamethasone],expression of a panel of epithelial or mesenchymal markers (qPCR),[1]; [3],no effect
cerulein,circulating pancreatic cell (CPC) number,"[2]; 8-week-old KCY mice, 3 days of cerulein vs vehicle",marked elevation in circulating cells
same,pancreas histology (ADMI and PanIN formation),"[2]; KCY mice, 8-week-old, 3 days of cerulein treatment vs vehicle",formation of ADMIs and accelerated PanIN formation
same,frequency of EMT in pancreas,"[2]; PDAC mice, cerulein compared to vehicle",little change in the frequency of EMT
same,circulating pancreatic cell (CPC) number,"[2]; across all groups (CY, KCY, PKCY PanIN, PDAC), p=0.014 by two-way ANOVA",significant increase in CPC number
same,EMT (YFP+Zeb1+ cells) in pancreas,[2]; control (CY) and KCY mice,emergence of YFP^+Zeb1^+ cells
same,expression of a panel of epithelial or mesenchymal markers (qPCR),[1]; [3],no effect
same,proliferation,[1]; [3],no effect on proliferation
same,cell morphology,"[1]; cerulein 100 nM, TGF-b 5 ng/ml",identical morphology as vehicle-treated cells
